Test: Assay 13 Blood brain barrier penetration (rat brain perfusion)
Type: in vivo
Details: 50 μM infusion, 1.5 minutes
Method: Assay 13. Blood Brain Barrier Penetration
The test compounds were dissolved in DMSO and phosphate buffered saline (PBS) was added to obtain solutions at a concentration of 50 μM in PBS containing 1.25-2.5% DMSO. A trace amount of ^14C-sucrose was added to each stock infusion solution (approx 0.01 μCi/mL) to act as Blood-Brain Barrier (BBB)-impermeable marker in order to assess the integrity of the BBB during each perfusion and to estimate the volume of the residual vascular space (RVS) in samples of brain tissue (ie: the volume of fluid remaining inside the lumen of blood vessels at the end of each perfusion). […]
After 1.5 minutes, the infusion pump automatically stopped, the cannula was withdrawn from the carotid artery and a sample of the infusion solution (1-1.5 mL) was then collected from the tip of the infusion cannula. […] The brain tissue samples from each animal were frozen at −30° C., homogenized and weighed aliquots analysed by LC-MS to give total brain concentration. […]
Small aliquots from each brain tissue sample and the corresponding infusion solution were analysed by liquid scintillation counting to determine the level of ^14C-sucrose. The residual vascular space (RVS) in each brain tissue sample was calculated by dividing the measured concentration of sucrose in brain tissue (dpm/mg) by its concentration in the corresponding infusion solution (dpm/μL). […]

Q: For `O=c1c2c(Cl)cc(Cl)c(O)c2ncn1C1CC1` [PBT-1061, 5,7-Dichloro-3-cyclopropyl-8-hydroxy-3H-quinazolin-4-one], which “Assay 13 Rat brain perfusion (brain uptake ratio)” value is on record?
A: >50%
